Starred links: 1 amine or outer side, 2 acyl side, 3 side chain; linkers in the order of their positions; H or OH if unused. Positions of bridges follow the written chain, without caps; N, C: chain ends. Non-standard residues stand in square brackets, D forms with d. Residues, ends and D or L forms follow the SMILES beside them. *: point of attachment. X52 = Cc1c(C(=O)O)cccc1C(=O)Nc1ccc(-c2ccc(C[C@H](N[*:1])C(=O)[*:2])cc2)cc1; X77 = Cc1ccc(C(=O)O)cc1C(=O)Nc1ccc(-c2ccc(C[C@H](N[*:1])C(=O)[*:2])cc2)cc1; X5 = Cn1nc(C(=O)Nc2ccc(-c3ccc(C[C@H](N[*:1])C(=O)[*:2])cc3)cc2)c2ccccc21; Bip(4'-NH) = O=C([C@H](Cc1ccc(-c2ccc(N[*:3])cc2)cc1)N[*:1])[*:2]; dArg(ω-Bn(3-CH2OH)) = N=C(NCCC[C@@H](N)C(=O)O)NCc1cccc(CO)c1; Indazole3carbonyl(1-CH2COOH) = O=C(O)Cn1nc(C(=O)*)c2ccccc21; Bip(4'-COOH) = N[C@@H](Cc1ccc(-c2ccc(C(=O)O)cc2)cc1)C(=O)O; Bip(4'-NHAc) = CC(=O)Nc1ccc(-c2ccc(C[C@H](N)C(=O)O)cc2)cc1; X7 = N=C(NCCC[C@@H](N[*:1])C(=O)[*:2])NCc1ccc2occc2c1; Ala(imidazol-2-yl) = N[C@@H](Cc1ncc[nH]1)C(=O)O; Ala(morpholin-4-yl) = N[C@@H](CN1CCOCC1)C(=O)O; Phe(3-CONH2) = NC(=O)c1cccc(C[C@H](N)C(=O)O)c1; Bip = N[C@@H](Cc1ccc(-c2ccccc2)cc1)C(=O)O; Ala(2-furyl) = N[C@@H](Cc1ccco1)C(=O)O; 2Pal = N[C@@H](Cc1ccccn1)C(=O)O; 2Thi = N[C@@H](Cc1cccs1)C(=O)O; Cha = N[C@@H](CC1CCCCC1)C(=O)O; Chg = N[C@H](C(=O)O)C1CCCCC1; Sar = CNCC(=O)O Some results are limits rather than exact numbers.

The target in one experiment is TNFα (Homo sapiens, UniProt P01375). Put plainly: TNF-Induced HEK-Blue Assay. Format: cell-based.
Sequence of TNFα (P01375 77-233 limits assumed): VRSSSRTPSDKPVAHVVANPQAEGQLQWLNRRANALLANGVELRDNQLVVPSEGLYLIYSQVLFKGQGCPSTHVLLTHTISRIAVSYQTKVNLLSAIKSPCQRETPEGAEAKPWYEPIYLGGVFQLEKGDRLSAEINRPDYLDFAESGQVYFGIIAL
Conditions: not given
In turn, `CC(C)C[C@@H]1NC(=O)[C@H](CCCNC(=N)N)NC(=O)[C@H](C(C)C)NC(=O)[C@@H]2CCCN2C(=O)[C@H](C(C)C)NC(=O)[C@@H](CCCNC(=N)NCc2ccc3occc3c2)NC(=O)[C@H](CC(=O)O)NC(=O)[C@@H]2CCCN2C(=O)CN(C)C(=O)[C@H](Cc2ccc(-c3ccc(NC(=O)c4nn(CC(=O)O)c5ccccc45)cc3)cc2)NC(=O)[C@H](Cc2ccc(-c3ccccc3)cc2)NC(=O)[C@H](CN2CCOCC2)NC(=O)CSC[C@@H](C(=O)NCC(N)=O)NC1=O` [Example 449] ({CH2CO}-[Ala(morpholin-4-yl)][Bip][Bip(4'-NH)](Indazole3carbonyl(1-CH2COOH))[Sar]PD[X7]VPVRLCG-NH2; thioether N-13) showed an IC50 of under 50 nM. For `CC(=O)Nc1ccc(-c2ccc(C[C@@H]3NC(=O)[C@H](Cc4ccc(-c5ccccc5)cc4)NC(=O)[C@H](CN4CCOCC4)NC(=O)CSC[C@@H](C(=O)NCC(N)=O)NC(=O)[C@H](CC(C)C)NC(=O)[C@H](Cc4cccc(C(N)=O)c4)NC(=O)[C@H](C4CCCCC4)NC(=O)[C@@H]4CCCN4C(=O)[C@H](C(C)C)NC(=O)[C@@H](CCCNC(=N)N)NC(=O)[C@H](CC(=O)O)NC(=O)[C@H](Cc4ccc(O)cc4)NC(=O)CN(C)C3=O)cc2)cc1` [Example 460] ({CH2CO}-[Ala(morpholin-4-yl)][Bip][Bip(4'-NHAc)][Sar]YD[dR]VP[Chg][Phe(3-CONH2)]LCG-NH2; thioether N-13), the IC50 was under 50 nM.

The experiment is the same for the next values; noted with them: HEK-Blue-CD40L cells, NF-kB-driven secreted alkaline phosphatase reporter; TNFα 0.5 ng/ml; 18 h; read-out: TNF induced HEK-Blue assay IC50 value.
Take `CC[C@H](C)[C@@H]1NC(=O)[C@@H](CCCNC(=N)N)NC(=O)[C@H](CC(=O)O)NC(=O)[C@H](Cc2cnc[nH]2)NC(=O)CN(C)C(=O)[C@H](Cc2ccc(-c3ccc(NC(=O)c4cccc(C(=O)O)c4C)cc3)cc2)NC(=O)[C@H](Cc2ccc(-c3ccccc3)cc2)NC(=O)[C@H](CC2CCCCC2)NC(=O)CSC[C@@H](C(=O)NCC(N)=O)NC(=O)[C@H](CC(C)C)NC(=O)[C@H](Cc2cnc[nH]2)NC(=O)[C@H](C(C)C)NC(=O)[C@@H]2CCCN2C1=O` [Example 447] ({CH2CO}-[Cha][Bip][X52][Sar]HD[dR]IPVHLCG-NH2; thioether N-13): the 50% inhibitory concentration (IC50) is 50 to 200 nM. With `CC(C)C[C@@H]1NC(=O)[C@H](CCCNC(=N)N)NC(=O)[C@H](C(C)C)NC(=O)[C@@H]2CCCN2C(=O)[C@H](C(C)C)NC(=O)[C@@H](CCCNC(=N)NCc2cccc(CO)c2)NC(=O)[C@H](CC(=O)O)NC(=O)[C@@H]2CCCN2C(=O)CN(C)C(=O)[C@H](Cc2ccc(-c3ccc(NC(=O)c4nn(C)c5ccccc45)cc3)cc2)NC(=O)[C@H](Cc2ccc(-c3ccccc3)cc2)NC(=O)[C@H](CN2CCOCC2)NC(=O)CSC[C@@H](C(=O)NCC(N)=O)NC1=O` [Example 448] ({CH2CO}-[Ala(morpholin-4-yl)][Bip][X5][Sar]PD[dArg(ω-Bn(3-CH2OH))]VPVRLCG-NH2; thioether N-13), the IC50 was under 50 nM. On to `CC[C@H](C)[C@@H]1NC(=O)[C@@H](CCCNC(=N)N)NC(=O)[C@H](CC(=O)O)NC(=O)[C@H](Cc2cnc[nH]2)NC(=O)CN(C)C(=O)[C@H](Cc2ccc(-c3ccc(NC(=O)c4cc(C(=O)O)ccc4C)cc3)cc2)NC(=O)[C@H](Cc2ccc(-c3ccccc3)cc2)NC(=O)[C@H](CC2CCCCC2)NC(=O)CSC[C@@H](C(=O)NCC(N)=O)NC(=O)[C@H](CC(C)C)NC(=O)[C@H](Cc2cnc[nH]2)NC(=O)[C@H](C(C)C)NC(=O)[C@@H]2CCCN2C1=O` [Example 450] ({CH2CO}-[Cha][Bip][X77][Sar]HD[dR]IPVHLCG-NH2; thioether N-13), for which the IC50 is under 50 nM.

For `CC(=O)Nc1ccc(-c2ccc(C[C@@H]3NC(=O)[C@H](Cc4ccc(-c5ccccc5)cc4)NC(=O)[C@H](CC4CCCCC4)NC(=O)CSC[C@@H](C(=O)NCC(N)=O)NC(=O)[C@H](CC(C)C)NC(=O)[C@H](Cc4ncc[nH]4)NC(=O)[C@H](C(C)C)NC(=O)[C@@H]4CCCN4C(=O)[C@H](C(C)C)NC(=O)[C@@H](CCCNC(=N)N)NC(=O)[C@H](CC(=O)O)NC(=O)[C@H](Cc4ccco4)NC(=O)CN(C)C3=O)cc2)cc1` [Example 451] ({CH2CO}-[Cha][Bip][Bip(4'-NHAc)][Sar][Ala(2-furyl)]D[dR]VPV[Ala(imidazol-2-yl)]LCG-NH2; thioether N-13), the IC50 is under 50 nM. For `CC(=O)Nc1ccc(-c2ccc(C[C@@H]3NC(=O)[C@H](Cc4ccc(-c5ccccc5)cc4)NC(=O)[C@H](CN4CCOCC4)NC(=O)CSC[C@@H](C(=O)NCC(N)=O)NC(=O)[C@H](CC(C)C)NC(=O)[C@H](Cc4cccs4)NC(=O)[C@H](C4CCCCC4)NC(=O)[C@@H]4CCCN4C(=O)[C@H](C(C)C)NC(=O)[C@@H](CCCNC(=N)N)NC(=O)[C@H](CC(=O)O)NC(=O)[C@H](Cc4ccccn4)NC(=O)CN(C)C3=O)cc2)cc1` [Example 452] ({CH2CO}-[Ala(morpholin-4-yl)][Bip][Bip(4'-NHAc)][Sar][2Pal]D[dR]VP[Chg][2Thi]LCG-NH2; thioether N-13), the IC50 fell in the range of 50 to 200 nM. With `CC(=O)Nc1ccc(-c2ccc(C[C@@H]3NC(=O)[C@H](Cc4ccc(-c5ccc(C(=O)O)cc5)cc4)NC(=O)[C@H](CN4CCOCC4)NC(=O)CSC[C@@H](C(=O)NCC(N)=O)NC(=O)[C@H](CC(C)C)NC(=O)[C@H](Cc4cccs4)NC(=O)[C@H](C(C)C)NC(=O)[C@@H]4CCCN4C(=O)[C@H](C(C)C)NC(=O)[C@@H](CCCNC(=N)N)NC(=O)[C@H](CC(=O)O)NC(=O)[C@H](Cc4cnc[nH]4)NC(=O)CN(C)C3=O)cc2)cc1` [Example 453] ({CH2CO}-[Ala(morpholin-4-yl)][Bip(4'-COOH)][Bip(4'-NHAc)][Sar]HD[dR]VPV[2Thi]LCG-NH2; thioether N-13), the IC50 is under 50 nM. `CC(=O)Nc1ccc(-c2ccc(C[C@@H]3NC(=O)[C@H](Cc4ccc(-c5ccccc5)cc4)NC(=O)[C@H](CN4CCOCC4)NC(=O)CSC[C@@H](C(=O)NCC(N)=O)NC(=O)[C@H](CC(C)C)NC(=O)[C@H](Cc4ccccc4)NC(=O)[C@H](C4CCCCC4)NC(=O)[C@@H]4CCCN4C(=O)[C@H](C(C)C)NC(=O)[C@@H](CCCNC(=N)N)NC(=O)[C@H](CC(=O)O)NC(=O)[C@H](Cc4ccccn4)NC(=O)CN(C)C3=O)cc2)cc1` [Example 454] ({CH2CO}-[Ala(morpholin-4-yl)][Bip][Bip(4'-NHAc)][Sar][2Pal]D[dR]VP[Chg]FLCG-NH2; thioether N-13): the IC50 was under 50 nM. Take `CC(=O)Nc1ccc(-c2ccc(C[C@@H]3NC(=O)[C@H](Cc4ccc(-c5ccccc5)cc4)NC(=O)[C@H](CN4CCOCC4)NC(=O)CSC[C@@H](C(=O)NCC(N)=O)NC(=O)[C@H](CC(C)C)NC(=O)[C@H](Cc4cccc(C(N)=O)c4)NC(=O)[C@H](C(C)C)NC(=O)[C@@H]4CCCN4C(=O)[C@H](C(C)C)NC(=O)[C@@H](CCCNC(=N)N)NC(=O)[C@H](CC(=O)O)NC(=O)[C@H](Cc4ccccc4)NC(=O)CN(C)C3=O)cc2)cc1` [Example 455] ({CH2CO}-[Ala(morpholin-4-yl)][Bip][Bip(4'-NHAc)][Sar]FD[dR]VPV[Phe(3-CONH2)]LCG-NH2; thioether N-13): the half-maximal inhibitory concentration (IC50) lay in the range of 50 to 200 nM. Consider `CC(=O)Nc1ccc(-c2ccc(C[C@@H]3NC(=O)[C@H](Cc4ccc(-c5ccccc5)cc4)NC(=O)[C@H](CN4CCOCC4)NC(=O)CSC[C@@H](C(=O)NCC(N)=O)NC(=O)[C@H](CC(C)C)NC(=O)[C@H](Cc4cccc(C(N)=O)c4)NC(=O)[C@H](C(C)C)NC(=O)[C@@H]4CCCN4C(=O)[C@H](C(C)C)NC(=O)[C@@H](CCCNC(=N)N)NC(=O)[C@H](CC(=O)O)NC(=O)[C@H](Cc4ccc(O)cc4)NC(=O)CN(C)C3=O)cc2)cc1` [Example 456] ({CH2CO}-[Ala(morpholin-4-yl)][Bip][Bip(4'-NHAc)][Sar]YD[dR]VPV[Phe(3-CONH2)]LCG-NH2; thioether N-13), for which the half-inhibitory concentration (IC50) was 50 to 200 nM.

On to `CC(=O)Nc1ccc(-c2ccc(C[C@@H]3NC(=O)[C@H](Cc4ccc(-c5ccc(C(=O)O)cc5)cc4)NC(=O)[C@H](CN4CCOCC4)NC(=O)CSC[C@@H](C(=O)NCC(N)=O)NC(=O)[C@H](CC(C)C)NC(=O)[C@H](Cc4cccc(C(N)=O)c4)NC(=O)[C@H](C(C)C)NC(=O)[C@@H]4CCCN4C(=O)[C@H](C(C)C)NC(=O)[C@@H](CCCNC(=N)N)NC(=O)[C@H](CC(=O)O)NC(=O)[C@H](Cc4ccc(O)cc4)NC(=O)CN(C)C3=O)cc2)cc1` [Example 457] ({CH2CO}-[Ala(morpholin-4-yl)][Bip(4'-COOH)][Bip(4'-NHAc)][Sar]YD[dR]VPV[Phe(3-CONH2)]LCG-NH2; thioether N-13), for which the IC50 is under 50 nM. For the compound `CC(=O)Nc1ccc(-c2ccc(C[C@@H]3NC(=O)[C@H](Cc4ccc(-c5ccc(C(=O)O)cc5)cc4)NC(=O)[C@H](CN4CCOCC4)NC(=O)CSC[C@@H](C(=O)NCC(N)=O)NC(=O)[C@H](CC(C)C)NC(=O)[C@H](Cc4cccc(C(N)=O)c4)NC(=O)[C@H](C(C)C)NC(=O)[C@@H]4CCCN4C(=O)[C@H](C(C)C)NC(=O)[C@@H](CCCNC(=N)N)NC(=O)[C@H](CC(=O)O)NC(=O)[C@H](Cc4ccccc4)NC(=O)CN(C)C3=O)cc2)cc1` [Example 458] ({CH2CO}-[Ala(morpholin-4-yl)][Bip(4'-COOH)][Bip(4'-NHAc)][Sar]FD[dR]VPV[Phe(3-CONH2)]LCG-NH2; thioether N-13), the IC50 is under 50 nM.

In the case of `CC(=O)Nc1ccc(-c2ccc(C[C@@H]3NC(=O)[C@H](Cc4ccc(-c5ccccc5)cc4)NC(=O)[C@H](CN4CCOCC4)NC(=O)CSC[C@@H](C(=O)NCC(N)=O)NC(=O)[C@H](CC(C)C)NC(=O)[C@H](Cc4cccc(C(N)=O)c4)NC(=O)[C@H](C4CCCCC4)NC(=O)[C@@H]4CCCN4C(=O)[C@H](C(C)C)NC(=O)[C@@H](CCCNC(=N)N)NC(=O)[C@H](CC(=O)O)NC(=O)[C@H](Cc4ccccc4)NC(=O)CN(C)C3=O)cc2)cc1` [Example 459] ({CH2CO}-[Ala(morpholin-4-yl)][Bip][Bip(4'-NHAc)][Sar]FD[dR]VP[Chg][Phe(3-CONH2)]LCG-NH2; thioether N-13), the IC50 was 50 to 200 nM. Turning to `CC(=O)Nc1ccc(-c2ccc(C[C@@H]3NC(=O)[C@H](Cc4ccc(-c5ccccc5)cc4)NC(=O)[C@H](CN4CCOCC4)NC(=O)CSC[C@@H](C(=O)NCC(N)=O)NC(=O)[C@H](CC(C)C)NC(=O)[C@H](Cc4ncc[nH]4)NC(=O)[C@H](C(C)C)NC(=O)[C@@H]4CCCN4C(=O)[C@H](C(C)C)NC(=O)[C@@H](CCCNC(=N)N)NC(=O)[C@H](CC(=O)O)NC(=O)[C@H](Cc4cccs4)NC(=O)CN(C)C3=O)cc2)cc1` [Example 461] ({CH2CO}-[Ala(morpholin-4-yl)][Bip][Bip(4'-NHAc)][Sar][2Thi]D[dR]VPV[Ala(imidazol-2-yl)]LCG-NH2; thioether N-13), the IC50 is under 50 nM.

(Values after patent US20250145665A1, “MACROCYCLIC PEPTIDES USEFUL AS MODULATORS OF TNF ALPHA” (Bristol-Myers Squibb Company, priority 2023, published 2025).)
